The values below come from ChEMBL document CHEMBL5212743, “Selectivity Literature for EUbOPEN Chemogenomics Library wave 3” (2023).

As usually defined, the IC50 is the point on the concentration scale where inhibition reaches its midpoint. A lower IC50 goes with greater potency. For orientation: Kd means the equilibrium constant for the complex coming apart.

The structures appear in SMILES notation. Numbering of substitutions follows the chain as printed.

Assay [1] deals with Tyrosine-protein kinase FRK (Homo sapiens, UniProt P42685). Conditions: at 1 µM.
Chain of Tyrosine-protein kinase FRK (P42685 whole entry): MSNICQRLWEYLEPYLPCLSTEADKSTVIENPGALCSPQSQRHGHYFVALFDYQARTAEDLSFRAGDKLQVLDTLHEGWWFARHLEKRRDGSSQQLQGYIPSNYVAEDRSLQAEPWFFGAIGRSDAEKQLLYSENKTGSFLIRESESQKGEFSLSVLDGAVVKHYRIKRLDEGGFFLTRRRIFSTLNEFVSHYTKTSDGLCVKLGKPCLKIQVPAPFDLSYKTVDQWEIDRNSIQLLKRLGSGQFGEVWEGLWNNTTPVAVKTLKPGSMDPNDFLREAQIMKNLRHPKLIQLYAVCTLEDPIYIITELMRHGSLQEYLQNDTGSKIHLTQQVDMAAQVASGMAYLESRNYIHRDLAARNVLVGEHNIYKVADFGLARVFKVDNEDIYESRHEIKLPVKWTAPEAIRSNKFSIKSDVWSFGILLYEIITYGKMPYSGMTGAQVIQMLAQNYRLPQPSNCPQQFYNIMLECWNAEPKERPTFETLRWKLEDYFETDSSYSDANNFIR
Assay [2] has as its target Tyrosine-protein kinase HCK (Homo sapiens, UniProt P08631). Conditions: at 1 µM.
Assay [3] has as its system Mast/stem cell growth factor receptor Kit (Homo sapiens), P10721 [D816V]. Description: Selectivity interaction (KinomeScan (DiscoverX)) EUB0000698a KIT. Conditions: at 10 µM.
The target of assay [4] is Receptor-type tyrosine-protein kinase FLT3 (Homo sapiens, UniProt P36888). As to the kind of experiment: Selectivity interaction (NanoBRET assay (HEK293T cells)) EUB0000305b FLT3.
The target of assay [5] is Serine/threonine-protein kinase PLK2 (Homo sapiens) (UniProt Q9NYY3). As to the kind of experiment: Selectivity interaction (KinomeScan (DiscoverX)) EUB0000702a PLK2. To be noted: at 1 µM.
Chain of Serine/threonine-protein kinase PLK2 (Homo sapiens) (Q9NYY3 whole entry, looked up): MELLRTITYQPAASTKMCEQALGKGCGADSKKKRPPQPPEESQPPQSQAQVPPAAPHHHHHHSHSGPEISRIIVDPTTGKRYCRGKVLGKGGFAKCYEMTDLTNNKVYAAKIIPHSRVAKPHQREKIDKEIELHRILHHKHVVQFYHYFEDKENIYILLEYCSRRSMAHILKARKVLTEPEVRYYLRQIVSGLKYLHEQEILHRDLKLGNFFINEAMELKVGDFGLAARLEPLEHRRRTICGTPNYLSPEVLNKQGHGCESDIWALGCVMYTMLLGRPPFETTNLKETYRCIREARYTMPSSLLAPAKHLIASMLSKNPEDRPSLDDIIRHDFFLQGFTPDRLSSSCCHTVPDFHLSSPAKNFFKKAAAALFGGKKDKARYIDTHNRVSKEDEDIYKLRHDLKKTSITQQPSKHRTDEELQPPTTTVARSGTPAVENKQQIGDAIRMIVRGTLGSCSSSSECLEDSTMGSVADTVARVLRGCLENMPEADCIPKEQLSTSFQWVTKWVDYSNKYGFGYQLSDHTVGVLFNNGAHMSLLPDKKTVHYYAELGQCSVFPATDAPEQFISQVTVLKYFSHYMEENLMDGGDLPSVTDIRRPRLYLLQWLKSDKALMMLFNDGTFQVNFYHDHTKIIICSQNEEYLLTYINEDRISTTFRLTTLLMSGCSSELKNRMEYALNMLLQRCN
Assay [6] concerns the target Serine/threonine-protein kinase ULK1 (Homo sapiens) (UniProt O75385). As to the kind of experiment: Selectivity interaction (KinomeScan (DiscoverX)) EUB0000702a ULK1. To be noted: at 1 µM.
For assay [7], the system named is T1, Receptor-type tyrosine-protein kinase FLT3 (Homo sapiens), P36888 [D835Y].
T1 sequence (whole entry): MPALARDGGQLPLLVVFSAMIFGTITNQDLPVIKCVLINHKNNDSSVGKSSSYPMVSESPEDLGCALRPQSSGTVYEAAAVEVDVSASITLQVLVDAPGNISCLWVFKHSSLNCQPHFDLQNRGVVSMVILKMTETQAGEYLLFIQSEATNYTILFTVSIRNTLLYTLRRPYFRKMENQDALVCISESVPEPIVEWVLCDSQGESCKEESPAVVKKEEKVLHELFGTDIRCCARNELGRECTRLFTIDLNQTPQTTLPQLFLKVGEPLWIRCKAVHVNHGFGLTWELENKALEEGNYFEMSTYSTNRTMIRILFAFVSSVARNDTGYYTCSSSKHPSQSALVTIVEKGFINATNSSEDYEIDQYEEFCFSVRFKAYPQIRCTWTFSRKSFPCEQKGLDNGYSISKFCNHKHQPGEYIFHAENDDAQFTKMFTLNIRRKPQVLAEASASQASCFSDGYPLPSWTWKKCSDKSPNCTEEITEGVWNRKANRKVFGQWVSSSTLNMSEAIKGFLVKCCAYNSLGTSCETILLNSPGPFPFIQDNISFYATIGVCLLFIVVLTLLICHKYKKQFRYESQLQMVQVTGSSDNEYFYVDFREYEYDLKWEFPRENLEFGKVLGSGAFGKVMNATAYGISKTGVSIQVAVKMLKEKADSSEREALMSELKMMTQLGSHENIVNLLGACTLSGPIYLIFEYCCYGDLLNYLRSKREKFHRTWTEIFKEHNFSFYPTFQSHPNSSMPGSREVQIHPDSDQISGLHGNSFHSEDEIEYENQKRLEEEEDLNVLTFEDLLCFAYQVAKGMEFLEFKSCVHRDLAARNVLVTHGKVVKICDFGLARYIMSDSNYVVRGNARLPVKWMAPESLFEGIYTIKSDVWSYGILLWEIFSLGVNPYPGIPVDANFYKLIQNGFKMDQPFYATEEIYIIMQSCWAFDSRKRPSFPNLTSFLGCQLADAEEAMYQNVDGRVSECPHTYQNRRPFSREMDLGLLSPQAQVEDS
Description: (§1) Selectivity interaction (KinomeScan (DiscoverX)) EUB0000702a FLT3. To be noted: at 1 µM.

Assay [8] deals with T2, Receptor-type tyrosine-protein kinase FLT3 (Homo sapiens), P36888 [D835V].
T2 sequence (whole entry): T1 sequence (whole entry) with Y835V
The assay is described as §1. To be noted: at 1 µM.

The subject of assay [9] is Receptor-type tyrosine-protein kinase FLT3 (Homo sapiens), P36888 [UNDEFINED MUTATION]. Described as §1. To be noted: at 1 µM.
Assay [10] addresses Phosphatidylinositol 4-phosphate 5-kinase type-1 gamma (Homo sapiens) (UniProt O60331). As to the kind of experiment: Selectivity interaction (KinomeScan (DiscoverX)) EUB0000178b PIP5K1C. Conditions: at 1 µM.
The target in assay [11] is Mitogen-activated protein kinase kinase kinase 2 (Homo sapiens) (UniProt Q9Y2U5). As to the kind of experiment: Selectivity interaction (KinomeScan (DiscoverX)) EUB0000178b MAP3K2. Conditions: at 1 µM.
Chain of Mitogen-activated protein kinase kinase kinase 2 (Homo sapiens) (Q9Y2U5 whole entry): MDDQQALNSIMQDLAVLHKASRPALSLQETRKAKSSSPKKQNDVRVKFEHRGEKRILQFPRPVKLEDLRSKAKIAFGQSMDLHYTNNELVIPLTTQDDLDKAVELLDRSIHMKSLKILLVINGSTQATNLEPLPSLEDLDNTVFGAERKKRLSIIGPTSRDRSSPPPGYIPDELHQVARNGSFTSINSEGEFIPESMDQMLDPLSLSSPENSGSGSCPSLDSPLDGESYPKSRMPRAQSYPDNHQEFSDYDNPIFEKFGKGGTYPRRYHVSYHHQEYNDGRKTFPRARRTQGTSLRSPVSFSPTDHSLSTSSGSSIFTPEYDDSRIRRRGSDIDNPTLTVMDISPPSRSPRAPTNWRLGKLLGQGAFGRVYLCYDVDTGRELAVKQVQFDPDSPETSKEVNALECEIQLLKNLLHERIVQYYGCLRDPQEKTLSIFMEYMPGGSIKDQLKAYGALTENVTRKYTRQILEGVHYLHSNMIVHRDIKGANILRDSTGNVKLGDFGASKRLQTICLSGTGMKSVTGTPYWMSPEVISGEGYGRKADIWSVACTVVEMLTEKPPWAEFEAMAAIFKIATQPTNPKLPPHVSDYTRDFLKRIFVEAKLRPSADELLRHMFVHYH
For assay [12], the target named is T3, Tyrosine-protein kinase ABL1 (Homo sapiens, UniProt P00519, T315I). Description: Selectivity interaction (Enzymatic assay) EUB0000178b ABL1.
Assay [13] addresses T3, Tyrosine-protein kinase ABL1. Description: Selectivity interaction (KinomeScan (DiscoverX, competition-binding assay)) EUB0000178b ABL1.
Assay [14] concerns the target Calcium/calmodulin-dependent protein kinase kinase 2 (Homo sapiens) (UniProt Q96RR4). As to the kind of experiment: Selectivity interaction (KinomeScan (DiscoverX)) EUB0000169b CAMKK2. To be noted: at 1 µM.
In assay [15] the target is Serine/threonine-protein kinase Nek6 (Homo sapiens) (UniProt Q9HC98). Description: Selectivity interaction (Kinase panel (University of Dundee)) EUB0000169b NEK6. Conditions: at 10 µM.
Chain of Serine/threonine-protein kinase Nek6 (Homo sapiens) (Q9HC98 whole entry): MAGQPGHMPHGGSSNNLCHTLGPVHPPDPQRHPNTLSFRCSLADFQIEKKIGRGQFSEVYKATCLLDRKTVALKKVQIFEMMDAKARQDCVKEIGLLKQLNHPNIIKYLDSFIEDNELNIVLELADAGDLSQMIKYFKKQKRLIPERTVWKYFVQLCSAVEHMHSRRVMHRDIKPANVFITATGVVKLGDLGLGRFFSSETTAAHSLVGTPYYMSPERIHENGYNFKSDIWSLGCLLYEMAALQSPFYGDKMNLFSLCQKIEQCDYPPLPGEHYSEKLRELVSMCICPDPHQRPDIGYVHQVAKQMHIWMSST
Assay [16] has as its target 5'-AMP-activated protein kinase catalytic subunit alpha-1 (Homo sapiens, UniProt Q13131). Description: Selectivity interaction (Kinase panel (University of Dundee)) EUB0000169b PRKAA1. To be noted: at 10 µM.

Chain of 5'-AMP-activated protein kinase catalytic subunit alpha-1 (Q13131 whole entry, looked up): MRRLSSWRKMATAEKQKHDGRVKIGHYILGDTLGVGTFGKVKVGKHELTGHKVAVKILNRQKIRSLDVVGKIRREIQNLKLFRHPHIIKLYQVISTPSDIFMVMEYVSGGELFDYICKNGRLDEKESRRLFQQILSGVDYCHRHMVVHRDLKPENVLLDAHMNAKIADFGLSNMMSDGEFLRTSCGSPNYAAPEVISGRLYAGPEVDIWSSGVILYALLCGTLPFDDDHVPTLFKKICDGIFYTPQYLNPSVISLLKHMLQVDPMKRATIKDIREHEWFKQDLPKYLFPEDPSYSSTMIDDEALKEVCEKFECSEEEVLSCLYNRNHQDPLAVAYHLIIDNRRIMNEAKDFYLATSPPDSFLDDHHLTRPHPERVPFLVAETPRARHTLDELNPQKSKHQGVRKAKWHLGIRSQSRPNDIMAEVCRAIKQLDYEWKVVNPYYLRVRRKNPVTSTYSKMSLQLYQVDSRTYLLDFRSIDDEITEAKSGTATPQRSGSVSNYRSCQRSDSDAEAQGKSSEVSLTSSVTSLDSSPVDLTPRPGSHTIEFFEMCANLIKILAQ
Chain of Mast/stem cell growth factor receptor Kit (Homo sapiens), P10721 [D816V] (P10721 whole entry D816V): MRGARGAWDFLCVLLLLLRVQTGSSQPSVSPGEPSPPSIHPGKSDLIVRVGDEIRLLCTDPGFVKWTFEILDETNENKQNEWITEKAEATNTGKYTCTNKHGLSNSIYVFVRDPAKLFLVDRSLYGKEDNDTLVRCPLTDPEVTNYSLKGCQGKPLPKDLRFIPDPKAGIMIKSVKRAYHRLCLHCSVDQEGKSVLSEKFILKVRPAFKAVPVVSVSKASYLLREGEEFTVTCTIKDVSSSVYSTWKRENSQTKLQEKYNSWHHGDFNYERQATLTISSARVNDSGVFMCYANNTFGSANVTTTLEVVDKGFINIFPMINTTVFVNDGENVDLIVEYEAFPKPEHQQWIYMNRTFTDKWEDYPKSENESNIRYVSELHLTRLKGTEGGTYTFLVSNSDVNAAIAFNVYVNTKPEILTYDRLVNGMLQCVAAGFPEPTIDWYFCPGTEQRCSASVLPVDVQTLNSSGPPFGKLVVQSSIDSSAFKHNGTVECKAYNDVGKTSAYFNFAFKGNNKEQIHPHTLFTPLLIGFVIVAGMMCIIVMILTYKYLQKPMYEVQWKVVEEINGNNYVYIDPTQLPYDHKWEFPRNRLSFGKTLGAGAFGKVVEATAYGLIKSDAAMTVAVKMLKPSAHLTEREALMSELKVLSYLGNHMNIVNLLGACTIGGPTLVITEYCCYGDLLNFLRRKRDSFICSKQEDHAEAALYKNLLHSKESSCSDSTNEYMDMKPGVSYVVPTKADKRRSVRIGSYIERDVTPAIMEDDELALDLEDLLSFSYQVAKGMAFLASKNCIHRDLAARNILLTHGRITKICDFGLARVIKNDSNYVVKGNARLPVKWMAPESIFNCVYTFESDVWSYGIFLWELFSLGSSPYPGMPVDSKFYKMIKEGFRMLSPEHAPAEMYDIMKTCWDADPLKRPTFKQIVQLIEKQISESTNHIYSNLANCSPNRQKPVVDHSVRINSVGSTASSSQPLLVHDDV
Chain of Calcium/calmodulin-dependent protein kinase kinase 2 (Homo sapiens) (Q96RR4 2-588 limits assumed): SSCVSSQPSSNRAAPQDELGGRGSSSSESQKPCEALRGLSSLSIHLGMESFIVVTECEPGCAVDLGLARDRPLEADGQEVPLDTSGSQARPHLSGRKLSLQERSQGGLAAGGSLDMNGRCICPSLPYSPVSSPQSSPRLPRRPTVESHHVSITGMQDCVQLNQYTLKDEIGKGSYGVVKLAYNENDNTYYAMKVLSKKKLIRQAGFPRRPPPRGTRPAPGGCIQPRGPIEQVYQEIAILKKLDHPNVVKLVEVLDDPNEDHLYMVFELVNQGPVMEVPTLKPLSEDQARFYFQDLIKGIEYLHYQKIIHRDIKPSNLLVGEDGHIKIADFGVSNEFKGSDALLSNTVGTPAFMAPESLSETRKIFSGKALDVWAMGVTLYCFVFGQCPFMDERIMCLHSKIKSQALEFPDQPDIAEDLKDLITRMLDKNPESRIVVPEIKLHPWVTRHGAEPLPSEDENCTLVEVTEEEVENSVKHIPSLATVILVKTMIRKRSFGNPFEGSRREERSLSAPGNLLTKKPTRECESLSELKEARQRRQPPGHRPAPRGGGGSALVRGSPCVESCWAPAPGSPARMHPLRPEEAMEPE
Chain of Phosphatidylinositol 4-phosphate 5-kinase type-1 gamma (Homo sapiens) (O60331 whole entry): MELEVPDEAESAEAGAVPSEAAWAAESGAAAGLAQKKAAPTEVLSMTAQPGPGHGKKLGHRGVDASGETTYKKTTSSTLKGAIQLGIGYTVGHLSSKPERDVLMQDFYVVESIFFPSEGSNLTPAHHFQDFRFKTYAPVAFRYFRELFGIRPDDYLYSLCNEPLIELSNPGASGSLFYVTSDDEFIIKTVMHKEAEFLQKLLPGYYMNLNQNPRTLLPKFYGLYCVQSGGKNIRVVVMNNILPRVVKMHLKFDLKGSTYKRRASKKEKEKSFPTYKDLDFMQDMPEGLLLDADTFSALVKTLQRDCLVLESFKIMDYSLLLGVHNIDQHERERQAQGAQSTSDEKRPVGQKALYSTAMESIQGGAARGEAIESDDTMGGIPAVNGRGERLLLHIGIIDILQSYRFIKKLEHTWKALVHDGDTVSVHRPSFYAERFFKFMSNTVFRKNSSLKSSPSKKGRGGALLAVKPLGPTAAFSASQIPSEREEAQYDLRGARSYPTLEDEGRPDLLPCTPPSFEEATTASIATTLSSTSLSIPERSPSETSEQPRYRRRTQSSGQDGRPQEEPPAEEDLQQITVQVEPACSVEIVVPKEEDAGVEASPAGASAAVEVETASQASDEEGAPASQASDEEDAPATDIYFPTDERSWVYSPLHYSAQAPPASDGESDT

Take `CCOc1cn(-c2ccc(F)cc2C)nc1C(=O)Nc1ccc(Oc2ccnc3cc(OC)c(OC)cc23)c(F)c1`: the % of control in assay [1] and in [2] was under 10% each time.

As to `COc1cc2ncn(-c3cc(OCc4ccccc4C(F)(F)F)c(C(N)=O)s3)c2cc1OC` [GW843682X], the % of control in assay [3] turned out to be 1.4%.

In [4], `C[C@H](c1ccnc(Nc2nc3ccc(-c4cc(N(C)C)ncn4)cc3[nH]2)c1)N1CCN(C(=O)CC(F)(F)F)CC1` [BAY-985] returned an IC50 of over 20000 nM.

Consider `CN(c1ccnc(CNc2nc(Nc3ccc4c(c3)CC(=O)N4)ncc2C(F)(F)F)n1)S(C)(=O)=O` [PF-00911705], for which the % of control in [5] stood at 0.5%; in assay [6], 1.2%; in assay [7], 2%; in assay [8], 1.5%; in [9], 0.7%.

With `CN1C(=O)c2sccc2N(C)c2nc(Nc3ccc(S(N)(=O)=O)cc3)ncc21`, the % of control in [10] was determined as 10%; in assay [11], 2.6%. The IC50 in assay [12] stood at 16.6 nM. Moreover, the Kd in [13] was 14 nM.

As for `CC[C@@H]1C(=O)N(C)c2cnc(Nc3ccc(C(=O)NC4CCN(C)CC4)cc3OC)nc2N1C1CCCC1`, the % of control in assay [14] stood at 3.4%; in assay [15] it was 110%; in [16], 89%.
